# Measured values published in patent publication US10294202B2, “Pyrrolidinones as herbicides” (FMC Corporation, priority 2013, dated 2019).
# What was measured:
# soybean (GLXMA) = test: Test H preemergence mixture test (Colby); assay type: in vivo, Glycine max; settings: for Plant response rating, Obsd., GLXMA: 21 d after treatment, scale 0 to 100; for GLXMA Obsd.: applied alone, 21 d, mean of three replicates, scale 0-100
# Text: Colby's Equation was used to determine the herbicidal effects expected from the mixtures. Colby's Equation (Colby, S. R. “Calculating Synergistic and Antagonistic Responses of Herbicide Combinations,” Weeds, 15(1), pp 20-22 (1967)) calculates the expected additive effect of herbicidal mixtures and for two active ingredients is of the form: Pa+b=Pa+Pb−(PaPb/100)
# where • Pa+b is the percentage effect of the mixture expected from additive contribution of the individual components: • Pa is the observed percentage effect of the first active ingredient at the same use rate as in the mixture, and • Pb is the observed percentage effect of the second active ingredient at the same use rate as in the mixture. In the following Tables, rates are shown in grams of active ingredient per hectare (g a.i./ha); “Obsd.” is the observed effect. “Exp.” is the expected effect calculated from Colby's Equation.
# This test evaluated the effect of mixtures of compound 80 with several commercial herbicides on four plant species. Seeds of plant species selected from corn (ZEAMD, Zea mays), soybean (GLXMA, Glycine max), waterhemp (common waterhemp, AMATA, Amaranthus rudis), and giant foxtail (SETFA, Setaria faberii) were planted into a silt loam soil and treated preemergence with test chemicals formulated in a non-phytotoxic solvent mixture which included a surfactant and applied using a volume of 281 L/ha. Each treatment was replicated three times. Treated plants and controls were maintained in a greenhouse using supplemental lighting to maintain a photoperiod of about 16 h; daytime and nighttime temperatures were about 24-30° C. and 19-21° C., respectively. Nutrients were applied using a balanced fertilizer applied through the watering system. At 21 d after treatment, all species were compared to controls and visually evaluated. Plant response ratings were calculated as the means of the three replicates, are summarized in Tables H1 through H5, and are based on a scale of 0 to 100 where 0 is no effect and 100 is complete control. A dash (-) response means no test result. The Expected (Exp.) results were calculated using Colby's Equation as described for Test G above.
# waterhemp (AMATA) = test: Test H preemergence mixture test (Colby); assay type: in vivo, Amaranthus rudis; settings: for Plant response rating, Obsd., AMATA: 21 d after treatment, scale 0 to 100; for AMATA Obsd.: applied alone, 21 d, mean of three replicates, scale 0-100
# barnyardgrass (ECHCG) = test: Test G paddy mixture test (Colby); assay type: in vivo, Echinochloa crus-galli; settings: applied alone, 14 d; for ECHCG Obsd.: scale 0-100; for ECHCG Obsd. plant response rating (scale 0 to 100): flooded
# In short: (§1)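 Weeds sown in Tama soil tubs; barnyardgrass and transplanted japonica rice grown in plug flats. Treated at 2.0–2.5 leaf stage; visual rating 0–100 versus controls after 14 d in greenhouse. Expected mixture effect calculated with Colby's equation; rates in g a.i. per area.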
# [1] = test system: small-flower umbrella sedge (CYPDI); test: Test G paddy mixture test (Colby); assay type: in vivo, Cyperus difformis; settings: applied alone, 14 d; for CYPDI Obsd.: scale 0-100; for CYPDI Obsd. plant response rating (scale 0 to 100): flooded
# In short: as §1
# ducksalad (HETLI) = test: Test G paddy mixture test (Colby); assay type: in vivo, Heteranthera limosa; settings: applied alone, 14 d; for HETLI Obsd.: scale 0-100; for HETLI Obsd. plant response rating (scale 0 to 100): flooded
# In short: as §1
# Rice, Water Seeded = test: Test F flood (paddy) test; assay type: in vivo, Oryza sativa; settings: 62 g ai/ha, 21 d, scale 0-100
# Text: Three plastic pots (ca. 16-cm diameter) per rate were partially filled with sterilized Tama silt loam soil comprising a 35:50:15 ratio of sand, silt and clay and 2.6% organic matter. Separate plantings for each of the three pots were as follows. Seeds from the U.S. of monochoria (Monochoria vaginalis), sedge, umbrella (small-flower umbrella sedge, Cyperus difformis), bulrush, […] bulrush, Scirpus juncoides), and […] (purple […] coccinea), were planted into one 16-cm pot for each rate. Seeds from the U.S. of flatsedge, rice (rice flatsedge, Cyperus iria), sprangletop, Brdd. (bearded sprangletop, Leptochloa fascicularis), one stand of 9 or 10 water seeded rice seedlings (Rice, W.S. Jap, Oryza sativa cv. 'Japonica-[…]' or Rice, W.S. Ind, 'Indica'), and two stands of 3 or 4 seedlings of rice, transplanted (transplanted rice, Oryza sativa cv. 'Japonica-[…]') were planted into one 16-cm pot for each rate. Seeds from the U.S. of barnyardgrass (Echinochloa crus-galli), […] (common […], Alisma plantago-aquatica), and watergrass, late (late watergrass, Echinochloa oryzicola) were planted into one 16-cm pot for each rate. Plantings were sequential so that crop and weed species were at the 2.0 to 2.5-leaf stage at time of treatment. […] Effects of treatments on rice and weeds were visually evaluated by comparison to untreated controls after 21 d. […]
smiles,measurement,setting,value
"O=C1NCC(c2ccc(C(F)(F)F)cc2)C1C(=O)Nc1cccc(F)c1F (stereo not drawn) [Compound 80, N-(2,3-difluorophenyl)-2-oxo-4-[4-(trifluoromethyl)phenyl]-3-pyrrolidinecarboxamide]","Plant response rating, Obsd., GLXMA",soybean (GLXMA); Cmpd 80 alone 62 g a.i./ha,12
same,"Plant response rating, Obsd., GLXMA",soybean (GLXMA); Cmpd 80 alone 125 g a.i./ha,0
same,GLXMA Obsd.,soybean (GLXMA); 62 g a.i./ha,12
same,GLXMA Obsd.,soybean (GLXMA); 125 g a.i./ha,0
same,"Plant response rating, Obsd., AMATA",waterhemp (AMATA); Cmpd 80 alone 62 g a.i./ha,0
same,"Plant response rating, Obsd., AMATA",waterhemp (AMATA); Cmpd 80 alone 125 g a.i./ha,33
same,AMATA Obsd.,waterhemp (AMATA); 62 g a.i./ha,0
same,AMATA Obsd.,waterhemp (AMATA); 125 g a.i./ha,33
"O=C1NC[C@H](c2cccc(C(F)(F)F)c2)[C@H]1C(=O)Nc1ccccc1F [Compound 204, (3R,4S)—N-(2-fluorophenyl)-2-oxo-4-[3-(trifluoromethyl)phenyl]-3-pyrrolidinecarboxamide]",ECHCG Obsd.,barnyardgrass (ECHCG); 125 g a.i./ha,65
same,ECHCG Obsd. plant response rating (scale 0 to 100),barnyardgrass (ECHCG); 125 g a.i./ha,65
same,ECHCG Obsd.,barnyardgrass (ECHCG); 500 g a.i./ha,90
same,ECHCG Obsd. plant response rating (scale 0 to 100),barnyardgrass (ECHCG); 500 g a.i./ha,90
same,CYPDI Obsd.,[1]; 125 g a.i./ha,0
same,CYPDI Obsd. plant response rating (scale 0 to 100),[1]; 125 g a.i./ha,0
same,CYPDI Obsd.,[1]; 500 g a.i./ha,0
same,CYPDI Obsd. plant response rating (scale 0 to 100),[1]; 500 g a.i./ha,0
same,HETLI Obsd.,ducksalad (HETLI); 125 g a.i./ha,100
same,HETLI Obsd. plant response rating (scale 0 to 100),ducksalad (HETLI); 125 g a.i./ha,100
same,HETLI Obsd.,ducksalad (HETLI); 500 g a.i./ha,100
same,HETLI Obsd. plant response rating (scale 0 to 100),ducksalad (HETLI); 500 g a.i./ha,100
CN1CC(c2ccc(F)c(F)c2)C(C(=O)Nc2cccc(F)c2F)C1=O (stereo not drawn) [Compound 303],"Plant response rating, Rice, Water Seeded","Rice, Water Seeded",0
